Values of other authors, collected in patent US7988998B2, “Sustained-release tramadol formulations with 24-hour efficacy” (Labopharm Inc., priority 2002, dated 2011).
Where a name gives a salt, the structure may show the parent alone.

Settings: patients receiving tramadol HCl

COc1cccc(C2(O)CCCCC2CN(C)C)c1 (stereo not shown) [tramadol HCl, Tramadol hydrochloride]
estimated incidence of seizures: less than 1%
